# Values quoted from earlier work as cited in patent US20160346319A1, “NO/HE GAS MIXTURE WITH BA[…]” (AIR LIQUIDE SANTE (INTERNATIONAL), priority 2014, published 2016).
# System: bacteria
# Conditions: high dose, certain publications
smiles,measurement,value
"[N]=O [NO, nitric oxide]",dose of NO showing an antibacterial effect,at least 150 ppm by volume
